Patent US20210393636A1, “TREATMENT OF CNS AND DEVELOPMENTAL DISORDERS USING HIGH DOSE 5-FORMYL-(6S)-TETRAHYDROFOLATE” (priority 2019, published 2021)

What was measured:
[1] = Folate absorption in serum after single high-dose oral administration of different folates (Example 1)
Method: For this study, 4 mg/kg folate was administered as a single dose to 250-300 g male Wistar rats. […] For each form of folate 4 time points of 30 min, 1 h, 2 h and 4 h were evaluated. For each time point 2 rats were used. The folate form dissolved in 0.5 ml buffered saline was administered orally using a blunt needle attached to a 1 ml syringe. The rats were euthanized by CO2 inhalation.
Blood was drawn cardiac puncture, allowed to clot for 30 min, serum separated, diluted in equal volume of 4% ascorbate pH 7.2 and kept frozen at −20 C. Folate forms in the serum was determined by HPLC and the peaks were quantified by comparing to known standards as described below.
Folate standards (5-MTHF, FA, THF and Formyl-THF) and 13C-labeled stable isotope internal standards (13C5-5-MTHF, 13C5-FA and 13C-Formyl-THF) were obtained from Schircks Laboratories (Switzerland). Formic acid, ascorbic acid and dithiothreitol (DTT) were obtained from Fluka and Optima LC-MS grade methanol from Fisher Scientific. Stock standards for each folate metabolite and internal standards were prepared as 1 mmol/L solutions in water containing 2 mg/mL ascorbic acid and stored at −80° C. Microtiter plates used for were purchased from NUNC.
Liquid chromatography electrospray ionization mass spectrometry (LC-ESI-MS/MS) analysis of plasma 5-MTHF, FA, THF, Formyl-THF was performed on a Sciex 5500QTRAP mass spectrometer (Foster City, Calif., USA) coupled with a Shimadzu ultra-high pressure Nexera chromatograph system (Kyoto, Japan). The MS/MS experiments were performed under positive electrospray ionization (+ESI) with multiple-reaction monitoring (MRM) using a Turbolon Spray electrospray source operating at a voltage of 5.5 kV and desolvation temperature of 500° C. The calibration curve was prepared in water containing 2 mg/mL ascorbic acid over a range of 12.5-400 nmol/L for each folate analyte.
Sample preparation involved combining 50 µl of blank, standard, control or sample with 10μ1 62.5 mM dithiothreitol, 20 mg/ml ascorbic acid and 2.5 μM 13C5-5-MTHF, 13C5-FA, 13C-Formyl-THF in 1.5 mL Eppendorf tubes, mixed by vortex and incubated for 10 minutes at room temperature in the dark. Next, samples were deproteinized with 5 volumes of methanol containing 2 mg/ml of ascorbic acid and vortexed and centrifuged at 14800 rpm for 10 minutes. Supernatant was loaded in a 96-well microtiter plate for analysis. The samples were analyzed following injection of 10 μL of extract on a Synergi Hydro 4μ 150×3 mm with a 4×2 mm SecurityGuard column (Phenomenex, Calif., USA) maintained at 40° C. (Phenomenex) and eluted in a gradient with buffer A (100% water with 0.1% formic acid) and buffer B (100% Methanol with 0.1% formic acid). The flow rate was 0.5 mL/min, with a gradient over a total run time of 6 min: 0.0-2.0 min, 0-100% B; 2.5 min, 100% B; 2.6-6.0 min, 0% B.
Total analytical analysis, including column re-equilibration, was 6 minutes. Eluent flow from the column was diverted to waste at the beginning and end of each run and was only directed to the source for the period from 1.5-3.5 minutes. The LC-MS/MS data was acquired and processed using Analyst 1.5.2 software (Sciex).
Values reported include both D- and L-forms.

[2] = Total folates in serum 24 h after oral administration of folate forms (Example 2); assay type: in vivo, rats; parameters: Total Folates in Serum (total 5-MTHF D- and L- plus folic acid): unit not given here; conditions: 4 mg/kg oral, 24 h
Method: (§1) This study evaluated the difference in folate absorption in non-pregnant rats, pregnant rats, pregnant rats injected with a control antibody, and pregnant rats injected with antibody to the folate receptor alpha. Eight (8) rats were assigned to each group for a total of thirty-two (32) rats. Two rats within each group were administered a single oral dose of PGA, 5-methyl-(6S)-THF, folinic acid or 5-formyl-(6S)-THF as a liquid solution and sacrificed at 24-hours to evaluate folate absorption patterns. The total amount of each form of folate administered to each rat was 4 mg/kg.
Serum was withdrawn immediately before the rat was sacrificed. For extraction of folate from serum, an aliquot of the serum was diluted in 3 volumes of phosphate buffer pH 5.5, placed in a boiling water bath for 10 min, cooled, the protein precipitate separated by centrifugation and the clear supernatant was assayed for folate concentration.

[3] = Tissue distribution of folates 24 h after oral administration of folate forms (Example 2); assay type: in vivo, rats; conditions: 4 mg/kg oral, 24 h; for Total 5-MTHF + PGA in Brain: derived from cortex and cerebellum
Method: as §1
Additional analyses were performed in various tissues of the pregnant and non-pregnant rats. For tissues other than serum, each tissue was collected, weighed and stored at −20 C. For the folate assay each tissue was suspended in 3 volumes of phosphate buffer containing 2% ascorbic acid pH 7.4 and homogenized using a polytron probe. An aliquot of this homogenate was diluted 10 fold in PO4 buffer PH 5.5 containing 0.2% ascorbic acid, in a glass tube, sealed and placed in a boiling water bath for 10 min. The tube was cooled to room temperature, precipitate removed by centrifugation and the clear supernatant assayed for folate. Brain concentrations were derived from cortex and cerebellum.

[4] = Tissue distribution of folates 24 h after oral administration of folate forms to rat pups, with and without FR Ab (Example 3); assay type: in vivo; conditions: PND 21 rat pups, 4 mg/kg oral, 24 h
Method: To determine tissue distribution of orally administered folate forms in young rat pups and study the effect of folate receptor antibodies on this distribution. PND 21 rat pups weighing about 50 g were administered folate forms orally at a dose of 4 mg/kg. Animals were euthanized after 24 h and tissues collected for analyzing total methylfolate in each tissue to provide a measure of normal distribution.

[5] = serum, 4 mg/kg single oral dose, 0.5 hr
[6] = serum, 4 mg/kg single oral dose, 1 hr
[7] = serum, 4 mg/kg single oral dose, 2 hr
[8] = serum, 4 mg/kg single oral dose, 4 hr
[9] = non-pregnant rats, without antibody
[10] = male, Wistar, rat, in vivo, po, 4 mg/kg
[11] = male, Wistar, rat, in vivo, po, 4 mg/kg, 0.5 h
[12] = male, Wistar, rat, in vivo, po, 4 mg/kg, 1 h
[13] = male, Wistar, rat, in vivo, po, 4 mg/kg, 2 h
[14] = male, Wistar, rat, in vivo, po, 4 mg/kg, 4 h

Structure (SMILES): CN1c2c(nc(N)[nH]c2=O)NC[C@@H]1CNc1ccc(C(=O)N[C@@H](CCC(=O)O)C(=O)O)cc1 [5-methyl-(6S)-THF, 5-methyl-(6S)-tetrahydrofolate]
- THF [1, 5]: 4.4 ng/mL
- Total Uptake [1, 5]: 188.5 ng/mL
- 5-MTHF ([1]; serum, 4 mg/kg single oral dose, 0.5 hr, D- and L-forms): 184.1 ng/mL
- THF [1, 6]: 9.0 ng/mL
- Total Uptake [1, 6]: 223.8 ng/mL
- 5-MTHF ([1]; serum, 4 mg/kg single oral dose, 1 hr, D- and L-forms): 214.8 ng/mL
- THF [1, 7]: 8.7 ng/mL
- Total Uptake [1, 7]: 258.4 ng/mL
- 5-MTHF ([1]; serum, 4 mg/kg single oral dose, 2 hr, D- and L-forms): 249.7 ng/mL
- 5-FoTHF [1, 8]: 5.1 ng/mL
- THF [1, 8]: 19.6 ng/mL
- Total Uptake [1, 8]: 216.2 ng/mL
- 5-MTHF ([1]; serum, 4 mg/kg single oral dose, 4 hr, D- and L-forms): 191.4 ng/mL
- Total Folates in Serum (total 5-MTHF D- and L- plus folic acid) ([2]; Non-pregnant rats): 60.0
- Total Folates in Serum (total 5-MTHF D- and L- plus folic acid) ([2]; pregnant rats, Control Ab + Form): 143.3
- Total Folates in Serum (total 5-MTHF D- and L- plus folic acid) ([2]; pregnant rats, FRAb + Form): 190.9
- Total Folates in Serum (total 5-MTHF D- and L- plus folic acid) ([2]; pregnant rats, Form Only): 85.5
- Total 5-MTHF + PGA in Cerebellum [3, 9]: 1.9
- Total 5-MTHF + PGA in Cortex [3, 9]: 1.9
- Total 5-MTHF + PGA in Kidney [3, 9]: 36.4
- Total 5-MTHF + PGA in Liver [3, 9]: 75.4
- Total 5-MTHF + PGA in Ovary [3, 9]: 7.2
- Total 5-MTHF + PGA in Brain [3, 9]: 1.9
- Total 5-MTHF + PGA in Embryo ([3]; pregnant rats, + Control IgG): 2.0 ng/mg
- Total 5-MTHF + PGA in Kidney ([3]; pregnant rats, + Control IgG): 20.3 ng/mg
- Total 5-MTHF + PGA in Liver ([3]; pregnant rats, + Control IgG): 148.5 ng/mg
- Total 5-MTHF + PGA in Ovary ([3]; pregnant rats, + Control IgG): 14.9 ng/mg
- Total 5-MTHF + PGA in Placenta ([3]; pregnant rats, + Control IgG): 2.3 ng/mg
- Total 5-MTHF + PGA in Brain ([3]; pregnant rats, + Control IgG): 3.2 ng/mg
- Total 5-MTHF + PGA in Embryo ([3]; pregnant rats, + FRAb): 1.9 ng/mg
- Total 5-MTHF + PGA in Kidney ([3]; pregnant rats, + FRAb): 64.9 ng/mg
- Total 5-MTHF + PGA in Liver ([3]; pregnant rats, + FRAb): 148.0 ng/mg
- Total 5-MTHF + PGA in Ovary ([3]; pregnant rats, + FRAb): 27.0 ng/mg
- Total 5-MTHF + PGA in Placenta ([3]; pregnant rats, + FRAb): 2.1 ng/mg
- Total 5-MTHF + PGA in Brain ([3]; pregnant rats, + FRAb): 3.7 ng/mg
- Total 5-MTHF + PGA in Embryo ([3]; pregnant rats, w/o IgG): 4.6 ng/mg
- Total 5-MTHF + PGA in Kidney ([3]; pregnant rats, w/o IgG): 25.5 ng/mg
- Total 5-MTHF + PGA in Liver ([3]; pregnant rats, w/o IgG): 58.6 ng/mg
- Total 5-MTHF + PGA in Ovary ([3]; pregnant rats, w/o IgG): 6.6 ng/mg
- Total 5-MTHF + PGA in Placenta ([3]; pregnant rats, w/o IgG): 6.4 ng/mg
- Total 5-MTHF + PGA in Brain ([3]; pregnant rats, w/o IgG): 2.4 ng/mg
- Folate (mean), Cerebellum ([4]; + FRAb (100 ug IP 24 h prior)): 60.7 ng/mg
- Folate (mean), Cerebrum ([4]; + FRAb (100 ug IP 24 h prior)): 3.8 ng/mg
- Folate (mean), Kidney ([4]; + FRAb (100 ug IP 24 h prior)): 116.4 ng/mg
- Folate (mean), Liver ([4]; + FRAb (100 ug IP 24 h prior)): 250.34 ng/mg
- Folate (mean), Cerebellum ([4]; no FRAb): 26.1 ng/mg
- Folate (mean), Cerebrum ([4]; no FRAb): 4.3 ng/mg
- Folate (mean), Kidney ([4]; no FRAb): 86.6 ng/mg
- Folate (mean), Liver ([4]; no FRAb): 158.5 ng/mg

Structure (SMILES): Nc1nc2ncc(CNc3ccc(C(=O)N[C@@H](CCC(=O)O)C(=O)O)cc3)nc2c(=O)[nH]1 [Folic Acid, pteroylglutamic acid]
- concentration at 0.5 h [1, 10]: 42.4 ng/mL
- concentration at 1 h [1, 10]: 236 ng/mL
- concentration at 2 h [1, 10]: 134 ng/mL
- concentration at 4 h [1, 10]: 121 ng/mL
- 5-MTHF [1, 11]: 72.8 ng/mL
- THF [1, 11]: 10.7 ng/mL
- Total Uptake [1, 11]: 126.0 ng/mL
- 5-MTHF [1, 12]: 112.9 ng/mL
- THF [1, 12]: 5.9 ng/mL
- Total Uptake [1, 12]: 354.3 ng/mL
- 5-MTHF [1, 13]: 101.4 ng/mL
- THF [1, 13]: 7.9 ng/mL
- Total Uptake [1, 13]: 243.3 ng/mL
- 5-MTHF [1, 14]: 109.7 ng/mL
- THF [1, 14]: 22.4 ng/mL
- Total Uptake [1, 14]: 252.7 ng/mL
